Results from patent US12371421B2, “Solid forms of a PARP7 inhibitor” (Ribon Therapeutics, Inc., priority 2019, dated 2025).

Key:
Assay in all cases: Cancer cell growth inhibition (CellTiter-Glo)
Assay type in all cases: cell-based
NUGC-3 = details: Homo sapiens; NUGC-3, gastric adenocarcinoma; 144 hours
Method: (§1) Cells were plated into 384-well plates at a pre-specified density in fetal bovine serum-containing media. Cells were treated with compound or vehicle (DMSO) 24 hrs later, and a day zero plate was collected for analysis. Test compound plates were incubated continuously for 144 hours before cells and cell growth was assessed using a luminescent cell viability assay (CellTiter-Glo, Promega). The GI50 was determined by correcting for the cell count at time zero (time of treatment) and plotting data as percent growth relative to vehicle-treated cells.

NCI-H647 = details: Homo sapiens; NCI-H647, lung adenosquamous carcinoma; 144 hours
Method: as §1

IA-LM = details: large cell lung carcinoma, 144 hours
Method: as §1

SK-MES-1 = details: Homo sapiens; SK-MES-1, squamous cell lung carcinoma; 144 hours
Method: as §1

TE-11 = details: Homo sapiens; TE-11, esophageal squamous cell carcinoma; 144 hours
Method: as §1

SK-MEL-2 = details: Homo sapiens; SK-MEL-2, malignant melanoma; 144 hours
Method: as §1

YD-10B = details: tongue squamous cell carcinoma, 144 hours
Method: as §1

NCI-H2009 = details: Homo sapiens; NCI-H2009, lung adenocarcinoma; 144 hours
Method: as §1

SCC-25 = details: Homo sapiens; SCC-25, tongue squamous cell carcinoma; 144 hours
Method: as §1

NCI-H2444 = details: Homo sapiens; NCI-H2444, non-small cell lung carcinoma; 144 hours
Method: as §1

COLO 680N = details: Homo sapiens, esophageal squamous cell carcinoma, 144 hours
Method: as §1

NCI-H1930 = details: Homo sapiens; NCI-H1930, small cell lung carcinoma; 144 hours
Method: as §1

SNU-840 = details: SNU-840, malignant ovarian Brenner tumor; 144 hours
Method: as §1

AGS = details: Homo sapiens, gastric adenocarcinoma, 144 hours
Method: as §1

SW900 = details: Homo sapiens; SW900, squamous cell lung carcinoma; 144 hours
Method: as §1

H4 = details: H4, neuroglioma; 144 hours
Method: as §1

NCI-H2087 = details: Homo sapiens; NCI-H2087, lung adenocarcinoma; 144 hours
Method: as §1

NCI-H1963 = details: Homo sapiens; NCI-H1963, small cell lung carcinoma; 144 hours
Method: as §1

T84 = details: Homo sapiens; T84, colon adenocarcinoma; 144 hours
Method: as §1

NCI-H441 = details: Homo sapiens; NCI-H441, papillary adenocarcinoma of the lung; 144 hours
Method: as §1

CAL-27 = details: Homo sapiens; CAL-27, tongue squamous cell carcinoma; 144 hours
Method: as §1

EBC-1 = details: Homo sapiens; EBC-1, squamous cell lung carcinoma; 144 hours
Method: as §1

CFPAC-1 = details: Homo sapiens; CFPAC-1, pancreatic ductal adenocarcinoma; 144 hours
Method: as §1

A101D = details: Homo sapiens, melanoma, 144 hours
Method: as §1

NCI-H2291 = details: Homo sapiens; NCI-H2291, lung adenocarcinoma; 144 hours
Method: as §1

- GI50 (NUGC-3): ≥ 1000 nM
- GI50 (NCI-H647): < 100 nM
- GI50 (IA-LM): < 100 nM
- GI50 (SK-MES-1): ≥ 1000 nM
- GI50 (TE-11): ≥ 1000 nM
- GI50 (SK-MEL-2): ≥ 1000 nM
- GI50 (YD-10B): ≥ 1000 nM
- GI50 (NCI-H2009): ≥ 1000 nM
- GI50 (SCC-25): < 100 nM
- GI50 (NCI-H2444): ≥ 1000 nM
- GI50 (COLO 680N): ≥ 1000 nM
- GI50 (NCI-H1930): ≥ 1000 nM
- GI50 (SNU-840): ≥ 1000 nM
- GI50 (AGS): ≥ 1000 nM
- GI50 (SW900): 100 to 1000 nM
- GI50 (H4): ≥ 1000 nM
- GI50 (NCI-H2087): ≥ 1000 nM
- GI50 (NCI-H1963): ≥ 1000 nM
- GI50 (T84): ≥ 1000 nM
- GI50 (NCI-H441): ≥ 1000 nM
- GI50 (CAL-27): ≥ 1000 nM
- GI50 (EBC-1): < 100 nM
- GI50 (CFPAC-1): 100 to 1000 nM
- GI50 (A101D): ≥ 1000 nM
- GI50 (NCI-H2291): ≥ 1000 nM
Structure (SMILES): C[C@@H](COCCC(=O)N1CCN(c2ncc(C(F)(F)F)cn2)CC1)Nc1cn[nH]c(=O)c1C(F)(F)F [Compound 1, 5-[[(2S)-1-(3-oxo-3-[4-[5-(trifluoromethyl)pyrimidin-2-yl]piperazin-1-yl]propoxy)propan-2-yl]amino]-4-(trifluoromethyl)-2,3-dihydropyridazin-3-one]
